Data reported in US10131643B2, “Tizoxanide carbamate and pharmaceutical use thereof” (priority 2013, dated 2018).
≈ marks a conversion by molar mass, not a printed value.

Tests used:
[1] = oral administration in mice, in words; for Parameters such as Tmax, Cmax, MRT, AUC and relative bioavailability compared with nitazoxanide: calculated as tizoxanide
PR8 influenza virus = PR8 influenza virus in MDCK cells; cited from earlier work
Helicobacter pylori = conditions: 103 strains of Helicobacter pylori; cited from earlier work
[2] = rat, in vivo, po
[3] = in vivo, cited from earlier work
[4] = tested on: Mycobacterium tuberculosis; conditions: cited from earlier work

Compound	Parameters such as Tmax, Cmax, MRT, AUC and relative bioavailability compared with nitazoxanide [1]	Oral absorption compared with the control agent nitazoxanide (NTZ) [1]	also measured
O=C(Nc1ncc([N+](=O)[O-])s1)c1ccccc1OC(=O)N1CCOCC1 [Compound 1, 2-(5-nitrothiazol-2-yl-carbamoyl)phenylmorpholine-4-carboxylate]	significantly superior	much better	–
CN1CCN(C(=O)Oc2ccccc2C(=O)Nc2ncc([N+](=O)[O-])s2)CC1 [Compound 2, 2-(5-nitrothiazol-2-yl-carbamoyl)phenyl-4-methylpiperazine-1-carboxylate]	significantly superior	faster	–
O=C(Nc1ncc([N+](=O)[O-])s1)c1ccccc1OC(=O)N1CCCCC1 [Compound 3]	significantly superior	much better	–
O=C(Nc1ncc([N+](=O)[O-])s1)c1ccccc1OC(=O)N1CCCC1 [Compound 4, 2-((5-nitrothiazol-2-yl)carbamoyl)phenyl-pyrrolidine-1-carboxylate]	significantly superior	much better	–
CCOC(=O)C1CCN(C(=O)Oc2ccccc2C(=O)Nc2ncc([N+](=O)[O-])s2)CC1 [Compound 5]	comparable	faster	–
CN(C)C(=O)Oc1ccccc1C(=O)Nc1ncc([N+](=O)[O-])s1 [Compound 6]	significantly superior	much better	–
CC(=O)Oc1ccccc1C(=O)Nc1ncc([N+](=O)[O-])s1 [NTZ, 2-acetoxy-N-(5-nitro-2-thiazolyl)benzamide]	–	–	EC50 (PR8 influenza virus): 1 µg/mL (≈ 3.25 µM); EC90 (PR8 influenza virus): 7 µg/mL (≈ 22.8 µM); 50% minimal inhibitory concentration (MIC50) (Helicobacter pylori): 1 µg/mL; 90% minimal inhibitory concentration (MIC90) (Helicobacter pylori): 4 µg/mL; Absolute bioavailability [2]: 7.2%; Detection of the parent drug in plasma, urine, bile and feces ([3]; po): not detectable; Part of the oral dose excreted by feces [3]: about ⅔; Part of the oral dose excreted by urine [3]: about ⅓; Minimal inhibitory concentration (MIC), median value [4]: 16 µg/mL (≈ 52.1 µM)
O=C(Nc1ncc([N+](=O)[O-])s1)c1ccccc1O [tizoxanide]	–	–	50% minimal inhibitory concentration (MIC50) (Helicobacter pylori): 1 µg/mL; 90% minimal inhibitory concentration (MIC90) (Helicobacter pylori): 4 µg/mL
